Measured values reported in patent publication US10501479B2, “Benzenesulfonyl-asymmetric ureas and medical uses thereof” (HELSINN HEALTHCARE SA, priority 2016, dated 2019).
Values joined by “and” are separate entries in the source; they are usually repeats but may differ in a detail not shown here. Equal values may be shown once. Read-outs that look alike come from different tables or passages of the source.

Legend:
[1] = biological target: T1, recombinant human ghrelin receptor (HEK293/GRLN) (Homo sapiens, UniProt Q92847); experiment: Ghrelin inverse agonist potency (EC50) with IP-1 (IP-One HTRF) assay; format: cell-based; conditions: IP-1 assay
T1 construct: expressed in transfected cells
T1 sequence (Q92847 whole entry): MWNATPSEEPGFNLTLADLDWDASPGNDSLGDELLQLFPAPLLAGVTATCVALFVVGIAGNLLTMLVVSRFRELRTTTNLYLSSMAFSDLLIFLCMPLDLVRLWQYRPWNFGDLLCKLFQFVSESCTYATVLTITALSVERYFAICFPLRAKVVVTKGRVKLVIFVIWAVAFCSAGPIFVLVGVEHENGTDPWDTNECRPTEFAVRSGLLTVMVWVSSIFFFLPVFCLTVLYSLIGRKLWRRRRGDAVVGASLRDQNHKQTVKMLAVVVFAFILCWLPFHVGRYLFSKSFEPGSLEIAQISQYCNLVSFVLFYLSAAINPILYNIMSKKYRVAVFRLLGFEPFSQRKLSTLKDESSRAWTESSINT
Summary of the method: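 HEK293/GRLN cells were seeded 18-22 hours before the test, then exposed to compound in stimulation buffer for 1 hour at 37° C, 5% CO2. IP-1 was detected by IP-One HTRF (IP1-d2 plus Tb-cryptate, 1 hour RT), reading 620 and 665 nm; the inverse agonist EC50 was derived from this.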

[2] = biological target: T2, GHSR-1a (HEK293/GHSR1a cell line) (Homo sapiens, UniProt Q92847); experiment: Ghrelin antagonist potency (IC50) with calcium FLIPR assay, ghrelin 10 nM; format: cell-based; conditions: ghrelin antagonist potency
T2 construct: expressed in transfected cells; host or cells: HEK293/GHSR1a cell line
T2 sequence (Q92847 whole entry): as above
Summary of the method: (§1)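 Cells seeded 24 h before the run were loaded with calcium dye for 30-60 min at room temperature or 37° C. For agonism, compound was added at t=20 sec and the calcium signal followed for 2 minutes. For antagonism, compound plus ghrelin (10 nM) went on at t=20 sec, and IC50 reflected the drop in ghrelin response.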

[3] = Metabolic stability in human liver microsomes; format: in vitro ADME
Summary of the method: (§2)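 Test compounds were incubated with liver microsomes in 100 mM potassium phosphate buffer, pH 7.4, at 37 °C, with reactions started by an NADPH regenerating system after a 5 min preincubation. Samples taken at 0, 10, 30 and 90 min were quenched cold, centrifuged, and parent remaining was quantified by LC-MS/MS.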

[4] = Metabolic stability in dog liver microsomes; format: in vitro ADME
Summary of the method: as §2

[5] = Metabolic stability in rat liver microsomes; format: in vitro ADME
Summary of the method: as §2

[6] = Metabolic stability in mouse liver microsomes; format: in vitro ADME
Summary of the method: as §2

[7] = Animal PK study in mouse via i.v., p.o. and s.c. administration; format: in vivo
Summary of the method: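 Single i.v. (tail vein), s.c. (neck scruff) or p.o. (gavage) dose to mice or rats; oral vehicle 1–5% DMSO/0.5% methylcellulose, i.v./s.c. vehicle 1–5% DMSO in 20% HP-β-cyclodextrin. Plasma sampled 0.083 (i.v./s.c.) or 0.25 to 24 h, analyzed by LC-MS/MS.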

[8] = Animal PK study in rat via i.v., p.o. and s.c. administration; format: in vivo; conditions: rat
[9] = Plasma protein binding (PPB), human; format: in vitro ADME; conditions: read-out: PPB (H)
[10] = Plasma protein binding (PPB), mouse; format: in vitro ADME
[11] = biological target: hERG (Homo sapiens, UniProt Q12809); experiment: hERG inhibition
hERG, sequence (Q12809 whole entry): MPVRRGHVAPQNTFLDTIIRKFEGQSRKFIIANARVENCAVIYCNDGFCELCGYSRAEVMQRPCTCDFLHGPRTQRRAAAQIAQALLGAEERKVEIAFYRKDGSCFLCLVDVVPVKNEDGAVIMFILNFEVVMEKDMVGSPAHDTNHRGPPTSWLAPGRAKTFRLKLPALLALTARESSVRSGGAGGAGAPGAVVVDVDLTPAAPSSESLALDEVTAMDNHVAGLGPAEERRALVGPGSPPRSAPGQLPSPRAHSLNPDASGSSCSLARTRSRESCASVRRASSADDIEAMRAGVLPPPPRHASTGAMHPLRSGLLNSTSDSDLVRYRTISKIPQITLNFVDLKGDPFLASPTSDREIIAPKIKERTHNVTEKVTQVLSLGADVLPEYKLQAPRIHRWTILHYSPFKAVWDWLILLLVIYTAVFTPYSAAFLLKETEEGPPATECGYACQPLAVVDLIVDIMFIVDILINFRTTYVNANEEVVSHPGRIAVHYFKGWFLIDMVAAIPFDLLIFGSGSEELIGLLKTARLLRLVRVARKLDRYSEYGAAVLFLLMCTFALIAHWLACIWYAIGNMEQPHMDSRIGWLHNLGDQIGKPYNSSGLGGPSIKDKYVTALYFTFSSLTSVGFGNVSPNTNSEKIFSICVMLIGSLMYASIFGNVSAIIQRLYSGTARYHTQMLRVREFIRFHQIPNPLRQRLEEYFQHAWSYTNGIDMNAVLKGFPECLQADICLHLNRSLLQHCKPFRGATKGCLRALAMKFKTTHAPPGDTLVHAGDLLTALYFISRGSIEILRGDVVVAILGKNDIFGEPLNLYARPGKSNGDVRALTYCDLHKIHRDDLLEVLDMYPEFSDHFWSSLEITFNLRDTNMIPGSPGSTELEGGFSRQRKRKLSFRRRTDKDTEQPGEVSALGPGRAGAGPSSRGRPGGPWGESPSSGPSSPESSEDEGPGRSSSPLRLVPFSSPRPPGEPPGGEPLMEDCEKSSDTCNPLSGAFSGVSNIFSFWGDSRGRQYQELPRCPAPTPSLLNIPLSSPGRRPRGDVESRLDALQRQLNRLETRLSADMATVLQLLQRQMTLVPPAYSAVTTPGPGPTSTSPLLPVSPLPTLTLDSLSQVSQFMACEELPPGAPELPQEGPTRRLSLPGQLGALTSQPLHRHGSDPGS

[12] = Animal PK study in dog (i.v., p.o.); format: in vivo; conditions: for PK CLiv / PK Vdiv / PK t1/2iv: i.v.; for PK CLpo / PK Vdpo / PK t1/2po: p.o.
[13] = biological target: T2, GHSR-1a (HEK293/GHSR1a cell line); experiment: Ghrelin agonist potency (EC50) with calcium FLIPR assay; format: cell-based
Summary of the method: as §1

[14] = Plasma protein binding (PPB), human (H); format: in vitro ADME
[15] = Plasma protein binding (PPB), rat (R); format: in vitro ADME
[16] = Plasma protein binding (PPB), rat; format: in vitro ADME; conditions: read-out: PPB (R) (converted)
[17] = Plasma protein binding (PPB), human; format: in vitro ADME; conditions: read-out: PPB (H) (converted)
[18] = Plasma protein binding (PPB), mouse; format: in vitro ADME; remark: listed apart in the source
[19] = Plasma protein binding (PPB), rat; format: in vitro ADME; conditions: read-out: PPB (R)
[20] = inverse agonist potency, read-out: EC50 (Activity)
[21] = ghrelin inverse agonist potency, read-out: Activity EC50
[22] = ghrelin agonist potency, read-out: Activity EC50/EMax

## CC(NC(=O)Nc1ccc(S(=O)(=O)Cc2ccc3c(c2)CN(C)C3)cc1)c1ccccc1 (stereo not drawn) [H1194, 1-(4-(((2-methylisoindolin-5-yl)methyl)sulfonyl)phenyl)-3-(1-phenylethyl)urea]
[1]; [20]
  EC50: 16.8 nM
[2]; read-out: IC50 (Activity)
  IC50: 38.3 nM
[3]
  Metabolic Stability Study H = human: 111.6 µL/min/mg
[4]
  Metabolic Stability Study D = dog: 14 µL/min/mg
[5]
  Metabolic Stability Study R = rat: 56 µL/min/mg
[6]
  Metabolic Stability Study M = mouse: 64.2 µL/min/mg
[7]
  PK F: 15.56 (M); %
[7]; i.v.
  PK CLiv: 60.2 mL/min/kg
  PK Vdiv: 6.33 L/kg
  PK t1/2iv: 1.21 (M); h
[7]; p.o.
  PK CLpo: 380 mL/min/kg
  PK Vdpo: 53.3 (M); L/Kg
  PK t1/2po: 1.62 (M); h
[8]
  PK F: 11.9 (R); %
[8]; i.v.
  PK CLiv: 94.7 mL/min/kg
  PK Vdiv: 8.86 (R); L/Kg
  PK t1/2iv: 1.08 (R); h
[8]; p.o.
  PK CLpo: 848 mL/min/kg
  PK Vdpo: 232.2 (R); L/Kg
  PK t1/2po: 4.54 (R); h
[9]
  fraction unbound: 0.076
[10]
  fraction unbound: 0.06
[11]
  hERG inh: 22.6 µM
[12]
  PK F: 54.07 (D) %
  PK CLiv: 16.7 mL/min/kg
  PK Vdiv: 2.11 (D) L/Kg
  PK t1/2iv: 1.44 (D) h
  PK CLpo: 30.7 mL/min/kg
  PK Vdpo: 4.05 (D) L/Kg
  PK t1/2po: 1.5 (D) h

## CC(NC(=O)Nc1ccc(S(=O)(=O)Cc2ccc3c(c2)CNC3)cc1C(=O)O)c1ccccc1.Cl (stereo not drawn) [H1486, 5-((isoindolin-5-ylmethyl)sulfonyl)-2-(3-(1-phenylethyl)ureido)benzoic acid]
[1]; [21]
  EC50: 4.9 nM
[13]; [22]
  EC50: > 30000 nM
[2]; read-out: Activity IC50
  IC50: 9.21 nM
[3]
  Metabolic Stability Study H = human: H = <10 M = <10 μL/min/mg
[6]
  Metabolic Stability Study M = mouse: H = <10 M = <10 μL/min/mg
[14]
  fraction unbound: 0.0519
[15]
  fraction unbound: 0.0265

## COc1cc(S(=O)(=O)Cc2ccc3c(c2)CCNC3)ccc1NC(=O)N(O)C(C)c1cccc(Cl)c1Cl (stereo not drawn) [H1497, 1-(1-(2,3-dichlorophenyl)ethyl)-1-hydroxy-3-(2-methoxy-4-(((1,2,3,4-tetrahydroisoquinolin-6-yl)methyl)sulfonyl)phenyl)urea]
[1]; [21]
  EC50: 3.3 nM
[13]; [22]
  EC50: > 30000 nM
[2]; read-out: Activity IC50
  IC50: 2.81 nM
[3]
  Metabolic Stability Study H = human: H = <10 μL/min/mg
[14]
  fraction unbound: 0.0016
[15]
  fraction unbound: 0.002

## CC(c1ccc2c(c1)CCNC2)S(=O)(=O)c1ccc(NC(=O)N[C@@H](C)c2cccc(Cl)c2Cl)cc1.Cl (stereo partly drawn) [H1080, 1-((S)-1-(2,3-dichlorophenyl)ethyl)-3-(4-((1-(1,2,3,4-tetrahydroisoquinolin-6-yl)ethyl)sulfonyl)phenyl)urea]
[1]; [20]
  EC50: 11.1 nM
[2]; read-out: IC50 (Activity)
  IC50: 22.6 nM
[3]
  Metabolic Stability Study H = human: H < 10 M < 10 R = not reported D = not reported μL/min/mg
[6]
  Metabolic Stability Study M = mouse: H < 10 M < 10 R = not reported D = not reported μL/min/mg
[11]
  hERG inh: 3.57 µM

## COc1cc(S(=O)(=O)Cc2ccc3c(c2)CCNC3)ccc1NC(=O)N(O)C(C)c1ccccc1 (stereo not drawn) [H1498, 1-hydroxy-3-(2-methoxy-4-(((1,2,3,4-tetrahydroisoquinolin-6-yl)methyl)sulfonyl)phenyl)-1-(1-phenylethyl)urea]
[1]; [21]
  EC50: 7.2 nM
[13]; [22]
  EC50: > 30000 nM
[2]; read-out: Activity IC50
  IC50: 24.8 nM
[3]
  Metabolic Stability Study H = human: H = 9.9 μL/min/mg
[14]
  fraction unbound: 0.0123
[15]
  fraction unbound: 0.0294

## CC(NC(=O)Nc1ccc(S(=O)(=O)Cc2ccc3c(c2)CNC3)cc1)c1ccccc1.Cl (stereo not drawn) [H1148, 1-(4-((isoindolin-5-ylmethyl)sulfonyl)phenyl)-3-(1-phenylethyl)urea]
[1]; [20]
  EC50: 2.9 nM and 3.13 nM
[2]; read-out: IC50 (Activity)
  IC50: 10 nM
[3]
  Metabolic Stability Study H = human: 22.2 µL/min/mg
[6]
  Metabolic Stability Study M = mouse: 21.1 µL/min/mg
[7]; i.v.
  PK t1/2iv: 1.37 h and 2.13 h
[7]; p.o.
  PK CLpo: 1610 mL/min/kg and 2742 mL/min/kg
[8]; i.v.
  PK Vdiv: 104.5 (R); L/Kg
  PK t1/2iv: 0.51 (R); h
[9]
  fraction unbound: 0.088
[10]
  fraction unbound: 0.077
[16]
  fraction unbound: 0.055
[11]
  hERG inh: 12.52 µM
[12]
  PK F: 15.7 (D) %
  PK CLiv: 12 mL/min/kg
  PK Vdiv: 2.34 (D) L/Kg
  PK t1/2iv: 2.32 (D) h
  PK CLpo: 80.3 mL/min/kg
  PK Vdpo: (M); 14.74 (D) L/Kg
  PK t1/2po: 2.34 (D) h

## COc1cc(S(=O)(=O)Cc2ccc3c(c2)CCNC3)ccc1NC(=O)NC(C)c1cccc(Cl)c1Cl.Cl (stereo not drawn) [H1415, 1-(1-(2,3-dichlorophenyl)ethyl)-3-(2-methoxy-4-(((1,2,3,4-tetrahydroisoquinolin-6-yl)methyl)sulfonyl)phenyl)urea]
[1]; HEK293/GRLN, read-out: Activity EC50 (ghrelin inverse agonist potency)
  EC50: 0.573 nM and 0.4 nM
[13]; HEK293/GHSR1a, read-out: Activity EC50/EMax: EC50 (ghrelin agonist potency)
  EC50: > 30000 nM
[3]
  Metabolic Stability Study H = human: < 10 µL/min/mg
[4]
  Metabolic Stability Study D = dog: 10.5 µL/min/mg
[5]
  Metabolic Stability Study R = rat: 28.3 µL/min/mg
[6]
  Metabolic Stability Study M = mouse: 12.8 µL/min/mg
[7]
  PK F: 1.12%
[7]; p.o.
  PK CL p.o.: 1240 mL/min/kg
  PK Vd p.o.: 326.9 L/kg
[7]; plasma, iv, 5 mg/kg
  Vd: 1.72 L/kg
[7]; plasma, iv, 5 mg/kg, i.v., read-out: PK CL i.v.
  clearance: 17.2 mL/min/kg
[7]; plasma, iv, 5 mg/kg, i.v., read-out: PK t1/2 i.v.
  half-life: 1.16 h
[7]; plasma, po, 10 mg/kg, p.o., read-out: PK t1/2 p.o.
  half-life: 3.04 h
[8]; plasma, iv, 5 mg/kg, i.v., read-out: PK CL i.v. (R)
  clearance: 35.3 mL/min/kg
[8]; plasma, iv, 5 mg/kg, i.v., read-out: PK Vd i.v. (R)
  Vd: 39.7 L/kg
[8]; plasma, iv, 5 mg/kg, i.v., read-out: PK t1/2 i.v. (R)
  half-life: 13 h
[8]
  PK F (R): 8.9%
[8]; i.p.
  PK CL i.p. (R): 46 mL/min/kg
  PK Vd i.p. (R): 61.91 L/kg
  PK t1/2 i.p. (R): 17/23
[17]
  fraction unbound: 0.0015
[18]
  fraction unbound: 0.0007
[19]
  fraction unbound: 0.0023
